Test systems include NCI-H522 lung; SF-268 CNS; KM12 colon; HCT-116 colon; DU-145 prostate; SF-539 CNS; OVCAR-4 ovarian; HS 578T breast; SR leukemia; MCF7 breast; SNB-19 CNS; BT-549 breast; MALME-3M melanoma; SK-MEL-2 melanoma.
Holding throughout (test): NCI anticancer screen, dose series, 48 h

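Protocol summary: plate cells (96-well), add compound at 5 concentrations, incubate 48 h, interpolate endpoints linearly. TGI: concentration producing complete growth inhibition.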 A value given as a limit tells only on which side of the number the result lay.

As for `COc1ccccc1CNC(=O)[C@H](Cc1ccc(O)cn1)NC(C)=O`, the TGI in the assay on NCI-H522 lung, in the assay with SF-268 CNS, with KM12 colon, in the assay on HCT-116 colon, in the assay with DU-145 prostate and in the assay on SF-539 CNS was over 100 µM in each case. The TGI in the assay on OVCAR-4 ovarian, in the assay with HS 578T breast, with SR leukemia, in the assay with MCF7 breast, with SNB-19 CNS and with BT-549 breast was over 100 µM each time. For the same molecule, the TGI with MALME-3M melanoma and in the assay with SK-MEL-2 melanoma was over 100 µM each time.
With `COc1ccc(N2C(=O)CC(c3c[nH]c4ncccc34)C2=O)cc1` (stereo not drawn), the TGI was 24.2 µM in the assay on NCI-H522 lung; over 100 µM with SF-268 CNS; over 100 µM in the assay on KM12 colon; 45.8 µM with HCT-116 colon; over 100 µM in the assay on DU-145 prostate; over 65.3 µM in the assay on SF-539 CNS. Moreover, the TGI was 47 µM with OVCAR-4 ovarian; over 100 µM with HS 578T breast; over 20 µM in the assay with SR leukemia; over 76.9 µM in the assay with MCF7 breast; over 100 µM in the assay with SNB-19 CNS; 37.2 µM in the assay on BT-549 breast. The TGI was 40.5 µM in the assay with MALME-3M melanoma and over 100 µM with SK-MEL-2 melanoma.
As for `O=C(NNC(=O)c1ccccc1O)c1ccc(O)cc1`, the TGI in the assay with NCI-H522 lung was 56.7 µM; in the assay with SF-268 CNS, over 100 µM; in the assay on KM12 colon, over 100 µM; with HCT-116 colon it was over 100 µM; in the assay on DU-145 prostate it was over 100 µM; with SF-539 CNS, over 100 µM. For the same molecule, the TGI in the assay on OVCAR-4 ovarian, in the assay on HS 578T breast, in the assay on SR leukemia, in the assay with MCF7 breast, in the assay with SNB-19 CNS and with BT-549 breast was over 100 µM throughout. The TGI in the assay on MALME-3M melanoma was over 100 µM; with SK-MEL-2 melanoma, 94.7 µM.
Regarding `CC(C)(C)C1CCC2c3c([nH]c4ccccc34)C3C(=O)N(c4ccc5c(c4)C(=O)c4ccccc4C5=O)C(=O)C3C2C1` (stereo not drawn), the TGI in the assay with NCI-H522 lung, in the assay on SF-268 CNS, in the assay on KM12 colon, in the assay with HCT-116 colon, with DU-145 prostate and with SF-539 CNS was over 100 µM each time. Also, the TGI in the assay on OVCAR-4 ovarian, with HS 578T breast, in the assay on SR leukemia, with MCF7 breast, with SNB-19 CNS and with BT-549 breast was over 100 µM in each case. For the same molecule, the TGI with MALME-3M melanoma and with SK-MEL-2 melanoma was over 100 µM throughout.
With `C=CCn1c(-c2ccc(-c3cs/c(=N\N=O)n3CC=C)cc2)cs/c1=N\N=O`, the TGI in the assay on NCI-H522 lung, with SF-268 CNS, in the assay with KM12 colon, with HCT-116 colon, in the assay with DU-145 prostate and with SF-539 CNS was over 100 µM in each case. Moreover, the TGI with OVCAR-4 ovarian is 57.4 µM; in the assay on HS 578T breast, over 100 µM; in the assay with SR leukemia it was over 100 µM; with MCF7 breast it was over 100 µM; with SNB-19 CNS it was over 100 µM; in the assay with BT-549 breast, over 100 µM. Further, the TGI in the assay on MALME-3M melanoma and in the assay on SK-MEL-2 melanoma was over 100 µM in each case.
Turning to `COC(=O)c1ccc(NCc2cc(O)ccc2O)cc1`, the TGI was 2.06 µM in the assay with NCI-H522 lung; 31.5 µM in the assay on SF-268 CNS; 29.6 µM in the assay on KM12 colon; 35.7 µM in the assay with HCT-116 colon; 24.8 µM with DU-145 prostate; 13.5 µM in the assay with SF-539 CNS. Moreover, the TGI is 30.5 µM in the assay on OVCAR-4 ovarian; 18.5 µM in the assay with HS 578T breast; over 32.4 µM with SR leukemia; 27.3 µM with MCF7 breast; 70.5 µM in the assay with SNB-19 CNS; 2.63 µM in the assay with BT-549 breast. In addition, the TGI in the assay with MALME-3M melanoma was 15.7 µM; in the assay on SK-MEL-2 melanoma, 36.1 µM.
`CCOC(=O)C(=O)C(CCC(=O)c1ccc2ccccc2c1O)C(=O)OCC` (stereo not drawn): the TGI in the assay on NCI-H522 lung, with SF-268 CNS, in the assay with KM12 colon, in the assay with HCT-116 colon, in the assay with DU-145 prostate and in the assay on SF-539 CNS was over 100 µM each time. The TGI with OVCAR-4 ovarian, in the assay with HS 578T breast, with SR leukemia, in the assay on MCF7 breast, in the assay with SNB-19 CNS and with BT-549 breast was over 100 µM each time. Moreover, the TGI in the assay on MALME-3M melanoma and in the assay on SK-MEL-2 melanoma was over 100 µM each time.
As for `CCc1cc2c(oc3cc(C)ccc32)c(=O)n1C`, the TGI with NCI-H522 lung, in the assay on SF-268 CNS, in the assay on KM12 colon, with HCT-116 colon, in the assay on DU-145 prostate and in the assay with SF-539 CNS was over 10 µM in each case. In addition, the TGI with OVCAR-4 ovarian, in the assay with HS 578T breast, with SR leukemia, in the assay on MCF7 breast, with SNB-19 CNS and with BT-549 breast was over 10 µM throughout. Further, the TGI with MALME-3M melanoma and in the assay with SK-MEL-2 melanoma was over 10 µM in each case.
As for `CN(C)CC1CN=C(NC(=O)Nc2ccccc2)O1` (stereo not drawn), the TGI in the assay with NCI-H522 lung, with SF-268 CNS, in the assay on KM12 colon, with HCT-116 colon, with DU-145 prostate and with SF-539 CNS was over 100 µM throughout. In addition, the TGI in the assay with OVCAR-4 ovarian, with HS 578T breast, in the assay with SR leukemia, with MCF7 breast, with SNB-19 CNS and in the assay with BT-549 breast was over 100 µM in each case. Moreover, the TGI in the assay on MALME-3M melanoma and in the assay with SK-MEL-2 melanoma was over 100 µM in each case.
Regarding `CC1=C(C(=O)OC(C)C)C(c2ccccc2C(F)(F)F)C(C(=O)OC(CO[N+](=O)[O-])CO[N+](=O)[O-])=C(C)N1` (stereo not drawn), the TGI in the assay on NCI-H522 lung is 14.2 µM; in the assay with SF-268 CNS, 38.7 µM; with KM12 colon, 18.5 µM; in the assay on HCT-116 colon, 16.6 µM; in the assay with DU-145 prostate, over 100 µM; in the assay with SF-539 CNS it was 23.2 µM. For the same molecule, the TGI in the assay with OVCAR-4 ovarian is 28.5 µM; in the assay with HS 578T breast it was 49.8 µM; in the assay on SR leukemia it was over 100 µM; with MCF7 breast, 72.2 µM; with SNB-19 CNS it was over 100 µM; in the assay on BT-549 breast, 22.1 µM. For the same molecule, the results for the TGI with MALME-3M melanoma and in the assay with SK-MEL-2 melanoma were 33 µM and 47.1 µM, respectively.
Turning to `Cc1cc(-c2nc3cccc(F)c3s2)ccc1N`, the TGI in the assay on NCI-H522 lung was over 100 µM; in the assay with SF-268 CNS it was over 86 µM; with KM12 colon, over 100 µM; with HCT-116 colon, over 100 µM; in the assay with DU-145 prostate, over 100 µM; with SF-539 CNS, over 100 µM. Besides, the TGI was over 100 µM in the assay with OVCAR-4 ovarian; over 90.8 µM in the assay with HS 578T breast; over 74.8 µM with SR leukemia; over 100 µM in the assay on MCF7 breast; over 100 µM in the assay on SNB-19 CNS; over 100 µM in the assay on BT-549 breast. The TGI in the assay with MALME-3M melanoma and with SK-MEL-2 melanoma was over 100 µM in each case.
As to `CC1=NN(C(=O)CC(=O)Nc2cccc(Cl)c2)C(=O)C1N=Nc1ccc(C(=O)O)cc1` (stereo not drawn), the TGI with NCI-H522 lung, in the assay on SF-268 CNS, in the assay on KM12 colon, in the assay with HCT-116 colon, in the assay on DU-145 prostate and in the assay with SF-539 CNS was over 100 µM throughout. In addition, the TGI with OVCAR-4 ovarian, with HS 578T breast, with SR leukemia, in the assay on MCF7 breast, with SNB-19 CNS and in the assay on BT-549 breast was over 100 µM each time. For the same molecule, the TGI in the assay with MALME-3M melanoma and in the assay on SK-MEL-2 melanoma was over 100 µM throughout.
For the molecule `CCOC(=O)/C(C#N)=C/c1ccc2c(c1)CC1(C2)Cc2cc(CC)c(C(C)O)cc2C1` (stereo not drawn), the TGI in the assay with NCI-H522 lung was over 100 µM; in the assay with SF-268 CNS it was 32.1 µM; in the assay with KM12 colon, 38.8 µM; in the assay with HCT-116 colon it was 15 µM; in the assay with DU-145 prostate it was 56.1 µM; with SF-539 CNS, 22.1 µM. For the same molecule, the TGI in the assay with OVCAR-4 ovarian is 49 µM; with HS 578T breast it was 60.8 µM; with SR leukemia, over 28.9 µM; in the assay on MCF7 breast, 23.9 µM; in the assay on SNB-19 CNS, 43.8 µM; with BT-549 breast it was 23.4 µM. In addition, the values for the TGI in the assay on MALME-3M melanoma and in the assay with SK-MEL-2 melanoma were 24.4 µM and 27.2 µM, respectively.
Turning to `CCOP(=O)(OCC)/C(C#N)=C/c1c[nH]c2ccccc12`, the TGI in the assay with NCI-H522 lung, in the assay with SF-268 CNS, in the assay on KM12 colon, with HCT-116 colon, in the assay on DU-145 prostate and in the assay with SF-539 CNS was over 100 µM each time. The TGI in the assay with OVCAR-4 ovarian, with HS 578T breast, in the assay with SR leukemia, in the assay with MCF7 breast, in the assay with SNB-19 CNS and in the assay with BT-549 breast was over 100 µM throughout. Also, the TGI with MALME-3M melanoma and in the assay on SK-MEL-2 melanoma was over 100 µM in each case.
Regarding `CC[C@@H]1/C=C/C=C/C[C@H](C)[C@@H](O)[C@](C)(O)C(=O)[C@H](C)[C@@H](O)[C@H](C)C(=O)[C@H](C)[C@@H](O)[C@H](C)/C=C/C(=O)O[C@H]2[C@@H](C)[C@@H](CC1)O[C@@]1(CC[C@@H](C)[C@@H](CC(C)O)O1)[C@@H]2C` (stereo partly drawn), the TGI with NCI-H522 lung is 3.89 µM; with SF-268 CNS it was 12.7 µM; in the assay on KM12 colon, 11.7 µM; with HCT-116 colon, 3.11 µM; in the assay with DU-145 prostate, 6.76 µM; in the assay with SF-539 CNS, 10.3 µM. Further, the TGI in the assay with OVCAR-4 ovarian is 9.33 µM; with HS 578T breast, over 25.1 µM; in the assay with SR leukemia, 13 µM; in the assay with MCF7 breast it was 7.08 µM; in the assay on SNB-19 CNS it was 19.8 µM; with BT-549 breast, 4.94 µM. Also, the TGI in the assay with MALME-3M melanoma amounted to 15.6 µM; in the assay with SK-MEL-2 melanoma, 8.4 µM.
Consider `Cc1c(C)c(S(=O)(=O)N(CCCCCON)OCCCN)c(C)c2c1OC(C)(C)CC2`, for which the TGI is 31.6 µM with NCI-H522 lung; 30.5 µM in the assay on SF-268 CNS; 27.3 µM with KM12 colon; over 100 µM in the assay with HCT-116 colon; 17.5 µM in the assay on DU-145 prostate; 28.5 µM in the assay with SF-539 CNS. Besides, the TGI was 21.5 µM in the assay with OVCAR-4 ovarian; 41.7 µM in the assay on HS 578T breast; over 21.7 µM in the assay on SR leukemia; 21.8 µM in the assay on MCF7 breast; 28.9 µM with SNB-19 CNS; 29.3 µM in the assay on BT-549 breast. The results for the TGI in the assay with MALME-3M melanoma and in the assay on SK-MEL-2 melanoma were 27.4 µM and 29.1 µM, respectively.
With `S=C1N=C(Cl)/C(=C\c2ccccc2)N1`, the TGI in the assay on NCI-H522 lung, in the assay with SF-268 CNS, with KM12 colon, in the assay on HCT-116 colon, with DU-145 prostate and with SF-539 CNS was over 100 µM in each case. Besides, the TGI with OVCAR-4 ovarian, in the assay on HS 578T breast, with SR leukemia, in the assay on MCF7 breast, in the assay on SNB-19 CNS and in the assay with BT-549 breast was over 100 µM throughout. Further, the TGI in the assay on MALME-3M melanoma and in the assay with SK-MEL-2 melanoma was over 100 µM throughout.
